Results taken from US6585991B1, “Termite bait matrix” (The United States of America as represented by the …, priority 1999, dated 2003).

Tests used:
[1] = tested on: Formosan subterranean termite colony; assay: Pair choice test, yellow pine versus bait matrix mixed with hexaflumuron; type: in vivo, Coptotermes formosanus; conditions: 50 ppm hexaflumuron in bait matrix; period of 10 weeks; colony of 1500
Procedure: To determine the acceptance by the Formosan subterranean termite of the bait matrix of Example 3 with toxic chemicals added, a pair choice test between a 25 g piece of yellow pine and an equivalent amount of bait matrix mixed with 50-ppm hexaflumuron was performed. Both pine and bait matrix were exposed to a Formosan termite colony composed of 1500 soldiers, workers, and nymphs, housed in a plastic Sterilite container containing 2L topsoil:sand (1:1) at 40% relative humidity. The treatment box was maintained under dark conditions at 26±3° C. A control, 12″ yellow pine wood stakes without hexaflumuron, was prepared and kept at the same conditions as the treatment.

termite = conditions: 125 ppm hexaflumuron in a matrix composed of spruce sawdust; cited from earlier work
[2] = tested on: termite workers and soldiers; assay: Non-choice tests of antibiotics and a fungus inhibitor in bait matrix; type: in vivo; conditions: 100 ppm in bait matrix; after three weeks of exposure
Procedure: Non-choice tests using five different antibiotics (streptomycin sulfate, rifampicin, albendazole, neomycin sulfate, and antimycotic) and a fungus inhibitor (sorbic acid) were conducted at four different concentrations (100, 250, 500, and 1000 ppm). Individual chemicals were mixed with the bait matrix of Example 3 at each concentration and 10 g samples of each were transferred to sterile plastic Petri dishes and exposed to groups of 20 termite workers and two soldiers. Five repetitions per treatment were done. The dishes were kept in a Percival incubator under dark conditions at 27±1° C. and 80% relative humidity. A control containing no antibiotic or fungus inhibitor was prepared and kept under the same conditions as the treatments. Time required to reach 100% mortality was recorded.

In the case of O=C(NC(=O)c1c(F)cccc1F)Nc1cc(Cl)c(OC(F)(F)C(F)F)c(Cl)c1 [hexaflumuron], the Mortality [1] is given as 100% and the “Mortality compared with 50 ppm in bait matrix (100% in 10 weeks)” value (termite) is given as “equivalent”.

For neomycin sulfate, the Mortality [2] was 40%.

Compound CCCSc1ccc2nc(NC(=O)OC)[nH]c2c1 [albendazole] has a Mortality [2] of 40%.

C/C=C/C=C/C(=O)O [sorbic acid] showed a Mortality [2] of 33%.
